Patent US11517596B2, “Method for alleviating arthritis with postbiotic extract” (CHAMBIO CO., LTD., priority 2020, dated 2022)

Tests used:
SW1353 cells [1] = assay: Determination of TGF-β content (ELISA) of SW1353 cell cultures treated with postbiotic extract and/or nutritional component; format: cell-based, Human; settings: 24 hours
Description: (§1) • 2. Human primary central chondrosarcoma cell line SW1353 was purchased from the Bioresource Collection and Research Center of the Food Industry Research and Development Institute (BCRC of FIRDI, Taiwan). SW1353 cells were grown in a 10-cm Petri dish containing Dulbecco's Modified Eagle's Medium (DMEM) (Thermo Fisher Scientific) supplemented with 10% fetal bovine serum (FBS). The SW1353 cells were cultivated in an incubator with culture conditions set at 37° C. and 5% CO2. Medium change was performed every two to three days. Cell passage was performed when the cultured cells reached 80-90% of confluence. • 3.
The TGF-β content was determined using an enzyme-linked immunosorbent assay (ELISA) kit (Cat. No. 559119, BD Biosciences) in accordance with the manufacturer's instructions.
(§2) SW1353 cells were divided into 25 groups, including one control group, twelve comparative groups (i.e., comparative groups L-1 to L-6 and B-1 to B-6), and twelve experimental groups (i.e., experimental groups L-1 to L-6 and B-1 to B-6). Each group of the SW1353 cells was incubated in a respective well of a 96-well culture plate containing 200 μL of DMEM at 1×10^4 cells/well, followed by cultivation in an incubator (37° C., 5% CO2) for 24 hours. […] The cell culture of the control group received no treatment.
After cultivation in an incubator (37° C., 5% CO2) for 24 hours, the respective resultant cell culture was subjected to the determination of TGF-β content according to the method described in section 1 of “General Procedures”.
(§3) SW1353 cells were divided into 28 groups, including fourteen comparative groups (i.e., comparative groups 1L to 7L and […]) and fourteen experimental groups (i.e., experimental groups 1L to 7L and 1B to 7B). Each group of the SW1353 cells was incubated in a respective well of a 96-well culture plate containing 200 μL of DMEM at 1×10^4 cells/well, followed by cultivation in an incubator (37° C., 5% CO2) for 24 hours.

SW1353 cells [2] = assay: Proliferation of SW1353 cells (MTT staining, OD570 converted to cell number); format: cell-based, Human; settings: 24 hours
Description: as §1
as §2, with “3” for “25”, “group” for “group, twelve comparative groups (i.e., comparative groups L-1 to L-6”, “two” for “B-1 to B-6), and twelve”, “L” for “L-1 to L-6”, “B).” for “B-1 to B-6).”
After cultivation in an incubator (37° C., 5% CO2) for 24 hours, the respective resultant cell culture was stained with 3-(4,5-Dimethylthiazol-2-yl)-2,5-diphenyltetrazolium bromide (MTT), followed by subjecting the stained cells to determination of absorbance at a wavelength of 570 nm by a spectrophotometer. The OD570 values obtained were subsequently converted to cell numbers based on a correlation curve previously prepared by plotting different known cell numbers of the SW1353 cells versus their OD570 values.
as §3
After cultivation in an incubator (37° C., 5% CO2) for 24 hours, the cell number of each group was determined according to the method described in section C of this example. The fold increase of viable cells was calculated using the following Equation (II): C=D/E (II) where C=fold increase of viable cells • D=cell number of respective experimental group or comparative group • E=cell number of corresponding comparative group 1L, 2L, 3L, 4L, 5L, 6L, or 7L

[3] = nutritional component only 50 mg/L
[4] = nutritional component only 100 mg/L
[5] = nutritional component only 50 mg/L, this group is the reference of the ratio
[6] = nutritional component only 100 mg/L, relative to the same component at 50 mg/L

| Molecule | TGF-β content (SW1353 cells [1]; [3]) [pg/mL] | TGF-β content (SW1353 cells [1]; [4]) [pg/mL] | Fold increase of viable cells (SW1353 cells [2]; [5]) | Fold increase of viable cells (SW1353 cells [2]; [6]) |
| --- | --- | --- | --- | --- |
| N[C@H]1C(O)O[C@H](CO)[C@@H](O)[C@@H]1O (stereo partly shown) [Glucosamine] | 17.1 | 20.8 | 1.0 | 1.1 |
| O=C1O[C@H]([C@@H](O)CO)C(O)=C1O [Vitamin C] | 18.2 | 21.1 | 1.0 | 1.0 |
| Chondroitin | 38.3 | 44.2 | 1.0 | 1.1 |
| Sodium hyaluronate | 97.3 | 102.2 | 1.0 | 1.1 |
